Paper PMC11566078, “Bactericidal activities and biochemical features of 16 antimicrobial peptides against bovine-mastitis causative pathogens” (Veterinary Research, 2024)
Where no end group is shown, it is not given here.

Tests used:
[1] = test system: Bacillus cereus ATCC 10876; experiment: microbe, parasite or virus in culture; assay type: cell-based; conditions: ATCC 10876, 6 h
Experimental: (§1) The standard bacterial strains used for antimicrobial activity assays include Staphylococcus aureus ATCC (American Type Culture Collection, Manassas, VA, USA) 6538, Bacillus cereus ATCC 10876, Enterococcus faecalis ATCC 29212, Streptococcus […] 27956, Streptococcus dysgalactiae ATCC 27957, Streptococcus equi subsp. zooepidemicus ATCC 43079, Escherichia coli ATCC 25922, and Pseudomonas aeruginosa ATCC 27853. Most bacterial strains were cultured in LB medium except for E. faecalis and streptococci, which were cultivated in brain heart infusion (BHI) broth (BD Bioscience). […] Experiments were conducted in triplicate.

[2] = test system: Enterococcus faecalis ATCC 29212; experiment: microbe, parasite or virus in culture; assay type: cell-based; conditions: ATCC 29212, 6 h
Experimental: as §1

[3] = test system: Pseudomonas aeruginosa ATCC 27853; experiment: microbe, parasite or virus in culture; assay type: cell-based; conditions: ATCC 27853, 6 h
Experimental: as §1

[4] = test system: Staphylococcus aureus ATCC 6538; experiment: microbe, parasite or virus in culture; assay type: cell-based; conditions: ATCC 6538, 6 h
Experimental: as §1

[5] = test system: Streptococcus agalactiae ATCC 27956; experiment: microbe, parasite or virus in culture; assay type: cell-based; conditions: ATCC 27956, 6 h
Experimental: as §1

[6] = test system: Streptococcus dysgalactiae ATCC 27957; experiment: microbe, parasite or virus in culture; assay type: cell-based; conditions: ATCC 27957, 6 h
Experimental: as §1

[7] = test system: Streptococcus equi subsp. zooepidemicus ATCC 43079; experiment: microbe, parasite or virus in culture; assay type: cell-based; conditions: ATCC 43079, 6 h
Experimental: as §1

Corynebacterium simulans = experiment: microbe, parasite or virus in culture; assay type: cell-based; conditions: 6 h
Experimental: (§2) All plates were cultivated aerobically.
(§3) Experiments were conducted in triplicate.

[8] = test system: Glutamicibacter halophytocola; experiment: microbe, parasite or virus in culture; assay type: cell-based; conditions: 6 h
Experimental: as §2, §3

[9] = test system: Staphylococcus chromogenes; experiment: microbe, parasite or virus in culture; assay type: cell-based; conditions: 6 h
Experimental: as §2, §3

[10] = test system: Staphylococcus epidermidis; experiment: microbe, parasite or virus in culture; assay type: cell-based; conditions: 6 h
Experimental: as §2, §3

Staphylococcus xylosus = experiment: microbe, parasite or virus in culture; assay type: cell-based; conditions: 6 h
Experimental: as §2, §3

Streptococcus uberis = experiment: microbe, parasite or virus in culture; assay type: cell-based; conditions: 6 h
Experimental: as §2, §3

E. coli (ATCC 25922) [11] = assay type: in vitro ADME, Escherichia coli
Experimental: (§4) The MICs against E. coli (ATCC 25922) for cc-CATH3, ML-CATH, and PD-CATH in 150 mM NaCl and different pH (pH 5, 6, and 7) that were adjusted using acetic acid (Sigma Aldrich) were determined as described above. For serum stability assay, each AMP at four different concentrations was dissolved in 50% (v/v) FBS (Hyclone™) and incubated at 37 °C for 0, 60, and 120 min, respectively. As described in a previous study, ΔHg-CATH was used as a control for serum sensitivity. The antimicrobial activity of cc-CATH3, ML-CATH, and PD-CATH against E. coli was assessed for each condition as above. All experiments were conducted in triplicate.
Figure 2 Changes in the antibacterial activity of cc-CATH3, ML-CATH, and PD-CATH after incubation with naïve serum. cc-CATH3, ML-CATH, and PD-CATH peptides were incubated in 50% (v/v) FBS each for 0, 60, and 120 min before applying to antimicrobial activity assay against E. coli (ATCC 25922). The antimicrobial activity was determined by measuring bacterial growth at OD 450 nm. The X and Y axes indicate peptide concentration and absorbance at 450 nm, respectively. Samples containing 50% FBS in the absence of the peptides indicate a control for bacterial growth without AMP treatments. The antimicrobial activity of cc-CATH3 (A), ML-CATH (B), and PD-CATH (C) after the treatment of FBS-incubated AMPs was shown.

bovine erythrocytes = experiment: Haemolytic activity; assay type: cell-based; conditions: OD 410 nm, repeated three times
Experimental: The experimental procedures were conducted in accordance with the guidelines approved by the Institutional Animal Care and Use Committee (IACUC) of Konkuk University, Seoul, Korea, and bovine blood was collected from a cow at a local farm using a BD Vacutainer® Sodium Heparin (BD Bioscience) to analyse haemolytic activity. Plasma was removed from the whole blood by centrifugation. Erythrocytes were washed thrice with phosphate-buffered saline (PBS, pH 7.4) and resuspended in PBS at a concentration of 2% (v/v). Subsequently, 100 µL of the erythrocyte suspension was added to each well of a 96-well microtiter plate. The plate contained an equal volume of the peptides in PBS with different concentrations of 10, 20, 40, 80, and 160 μg/mL. Triton-X 100 (1%) and PBS were used as positive and negative controls, respectively. Plates were incubated at 37 °C for 1 h. The release of haemoglobin into the supernatant was monitored by measuring the change in OD at 410 nm using a microplate reader (xMark™ spectrophotometer; Bio-Rad). Results from three independent experiments were pooled. Hemolysis was calculated using the formula: HemolyticPercentage(%)=100×(ODpeptide-ODnegative)/(ODpositive-ODnegative)
All experiments were carried out in triplicate.

[12] = test system: eight standard bacterial strains; assay type: cell-based; conditions: all eight standard strains; range stated for the three peptides
Experimental: as §1

[13] = test system: all bacterial strains in the panel and field isolates from milk; assay type: cell-based; conditions: against all bacterial strains in the panel and field isolates from milk
Experimental: The standard bacterial strains used for antimicrobial activity assays include Staphylococcus aureus ATCC (American Type Culture Collection, Manassas, VA, USA) 6538, Bacillus cereus ATCC 10876, Enterococcus faecalis ATCC 29212, Streptococcus agalactiae ATCC 27956, Streptococcus dysgalactiae ATCC 27957, Streptococcus equi subsp. zooepidemicus ATCC 43079, Escherichia coli ATCC 25922, and Pseudomonas aeruginosa ATCC 27853. Most bacterial strains were cultured in LB medium except for E. faecalis and streptococci, which were cultivated in brain heart infusion (BHI) broth (BD Bioscience).
as §2, §3

[14] = test system: field isolates from milk with high SCCs; conditions: all field isolates except A. hydrophila; range stated for the three peptides
Experimental: The minimum inhibitory concentration (MIC) was determined by following the manufacturer’s protocol and Clinical and Laboratory Standards Institute (CLSI) guidelines (2018) using a colourimetric method specified by the Microbial Viability Assay Kit-WST (Dojindo, Kumamoto, Japan). Four colonies of each bacterium were inoculated into 5 mL of LB medium and incubated at 37 °C for 4–6 h. The cells were then washed twice with sterile saline (0.9% NaCl) and seeded into a single well of a 96-well plate at a density of 1.5 × 10^5 cells/well, adjusting by McFarland standard 0.5. Subsequently, 180 µL/well of fresh MH broth (BD Bioscience) was added to the plate. Ampicillin, chloramphenicol, and gentamicin sulfate were used as controls for antimicrobial activity.
Different concentrations of each peptide and reference antibiotics (up to 40 µg/mL) were serially diluted in 10 µL of MH broth and added to each well. The plate was incubated at 37 °C for 6 h, using BHI broth to culture slow-growing fastidious strains, including E. faecalis, A. hydrophila, C. simulans, G. halophytocola, and streptococci. Cation-adjusted Mueller Hinton II broth (CAMHB) was employed to cultivate P. aeruginosa. Afterwards, 10 µL of the colouring reagent was added, and cells were incubated at 37 °C for 2 h. UV absorbance was measured for each well at 450 nm using a microplate spectrophotometer (xMark spectrophotometer; Bio-Rad, Hercules, CA, USA). The MIC values were determined when the absorbance difference between treatments and blanks (media and colouring reagent only) decreased to < 0.05. Experiments were conducted in triplicate.

PK15 cells = experiment: Cytotoxicity, WST-1 cell viability; conditions: 24 h, 37 °C, repeated three times
Experimental: (§5) Human keratinocytes (HaCaT) and pig kidney fibroblast cells (PK15, ATCC CCL-33) were cultured in Dulbecco’s modified Eagle’s medium (DMEM; Hyclone™, Logan, UT, USA) and supplemented with 10% foetal bovine serum (FBS; Hyclone™, Logan, UT, USA), 1% penicillin–streptomycin (Hyclone™) at 37 °C, and 5% CO2 up to 80% confluence. Cell substratum adhesion was disrupted using Accutase (Innovative Cell Technologies, San Diego, CA, USA). A total of 4 × 10^4 cells were incubated for 24 h at 37 °C and 5% CO2 in each well of a 96-well plate containing 64 and 160 µg/mL of each peptide.
(§6) A positive control for complete cell lysis was established using Triton-X100 (1%), and untreated cells were used as the negative control. After incubation, the medium was removed from the wells and replaced with 10 µL of colouring solution (Cell Proliferation Reagent WST-1™) and 100 µL of DMEM (Hyclone™), per the manufacturer’s protocol. Each well absorbance was measured at 440 nm (peptide-treated and control) and 650 nm (background). These measurements were recorded as the optical density (OD) using a microplate reader (xMark™ spectrophotometer; Bio-Rad, CA, USA). Cell viability was calculated using the following equation: CellViability(%)=100×(ODpeptide-ODbackground)/(ODnegative-ODbackground)
(§7) All experiments were performed in triplicate.

HaCaT cells = experiment: Cytotoxicity, WST-1 cell viability; conditions: 24 h, 37 °C, repeated three times
Experimental: as §5, §6, §7

E. coli (ATCC 25922) [15] = assay type: cell-based, Escherichia coli; conditions: ATCC 25922, pH 5
Experimental: as §3, §4

[16] = 10 μg/mL, 2% (v/v) erythrocytes in PBS pH 7.4, 37 °C 1 h, mean ± SD
[17] = 20 μg/mL, 2% erythrocytes in PBS pH 7.4, 37 °C 1 h
[18] = 40 μg/mL, 2% erythrocytes in PBS pH 7.4, 37 °C 1 h
[19] = 80 μg/mL, 2% erythrocytes in PBS pH 7.4, 37 °C 1 h

Experimental for PK15 and HaCaT cells: as §5, §6, §7

Row | Sequence | Minimal inhibitory concentration, Bacillus cereus [1] | Minimal inhibitory concentration, Enterococcus faecalis [2] | Minimal inhibitory concentration, Pseudomonas aeruginosa [3] | Minimal inhibitory concentration, Staphylococcus aureus [4] | Minimal inhibitory concentration, Streptococcus agalactiae [5] | Minimal inhibitory concentration, Streptococcus dysgalactiae [6] | Minimal inhibitory concentration, Streptococcus equi subsp. zooepidemicus [7] | Minimal inhibitory concentration, Corynebacterium simulans (Corynebacterium simulans) | Minimal inhibitory concentration, Glutamicibacter halophytocola [8] | Minimal inhibitory concentration, Staphylococcus chromogenes [9] | Minimal inhibitory concentration, Staphylococcus epidermidis [10] | Minimal inhibitory concentration, Staphylococcus xylosus (Staphylococcus xylosus) | Minimal inhibitory concentration, Streptococcus uberis (Streptococcus uberis) | antibacterial activity after incubation with serum (E. coli (ATCC 25922) [11]) | Haemolytic activity against bovine erythrocytes (bovine erythrocytes; [16]) | Haemolytic activity against bovine erythrocytes (bovine erythrocytes; [17]) | Haemolytic activity against bovine erythrocytes (bovine erythrocytes; [18]) | Haemolytic activity against bovine erythrocytes (bovine erythrocytes; [19]) | MICs, range over all bacterial species in the test panel [12] | minimum inhibitory concentration, range over strains [13] | also measured
1 | ILGPALRIGGRIAGRIAGKLIGDAINRHRERNRQRRG [PD-CATH] | 6 (1.5) μg/mL | 6 (1.5) μg/mL | 42 (10.3) μg/mL | 3 (0.7) μg/mL | 8 (2.0) μg/mL | 18 (4.4) μg/mL | 17 (4.2) μg/mL | 1 µg/mL | 1 µg/mL | 4 (1.0) μg/mL | 3 (0.7) μg/mL | 3 (0.7) μg/mL | 5 (1.2) μg/mL | remained unaffected under all the tested conditions | 0.4 ± 0.2% | 0.7 ± 0.4% | 2.9 ± 0.2% | 3.5 ± 0.2% | 2 to 42 µg/mL | 0.2 to 10.3 µM | MICs, range over field isolates [14]: 0.8 to 5 µg/mL; Cell viability ± SD, PK15 (PK15 cells; 64 μg/mL peptide): 43.6 ± 1.7%; Cell viability ± SD, PK15 (PK15 cells; 160 μg/mL peptide): 7.4 ± 0.2%; Cell viability ± SD, HaCaT (HaCaT cells; 64 μg/mL peptide): 100.2 ± 0.2%; Cell viability ± SD, HaCaT (HaCaT cells; 160 μg/mL peptide): 11.4 ± 0.5%
2 | LNPLIKAGIFILKHRRPIGRGIEITGRGIKKFFSK [ML-CATH] | 3 (0.8) μg/mL | 5 (1.3) μg/mL | 42 (10.6) μg/mL | 2 (0.5) μg/mL | 8 (2.0) μg/mL | 14 (3.5) μg/mL | 9 (2.3) μg/mL | 1 (0.3) μg/mL | 2 (0.5) μg/mL | 2 (0.5) μg/mL | 2 (0.5) μg/mL | 2 (0.5) μg/mL | 3 (0.8) μg/mL | remained unaffected under all the tested conditions | 5.8 ± 0.4% | 6.4 ± 0.8% | 7.0 ± 0.8% | 7.7 ± 0.2% | 2 to 42 µg/mL | 0.2 to 10.3 µM | MIC against E. coli in more acidic conditions (E. coli (ATCC 25922) [15]): 2 µg/mL; Haemolytic activity against bovine erythrocytes (bovine erythrocytes; 160 μg/mL, 2% erythrocytes in PBS pH 7.4, 37 °C 1 h): 11.8 ± 4.5%; MICs, range over field isolates [14]: 0.8 to 5 µg/mL; cell viability of PK15 and HaCaT (PK15 and HaCaT cells): 91.1 ± 1.8% to 100.6 ± 0.4; Cell viability ± SD, PK15 (PK15 cells; 64 μg/mL peptide): 96.2 ± 0.4%; Cell viability ± SD, PK15 (PK15 cells; 160 μg/mL peptide): 38.0 ± 2.2%; Cell viability ± SD, HaCaT (HaCaT cells; 64 μg/mL peptide): 99.7 ± 0.9%; Cell viability ± SD, HaCaT (HaCaT cells; 160 μg/mL peptide): 98.0 ± 1.5%
